Measurements as given in patent US11000033B2, “Ketone or oxime compound, and herbicide” (NISSAN CHEMICAL CORPORATION, priority 2014, dated 2021).

Key:
Type in all cases: in vivo
[1] = test system: Echinochloa crus-galli var. crus-galli; experiment: Test Example 5: herbicidal effect by foliage application, plastic box (symbol H); settings: 320 g/ha, 3 weeks after application
Method in brief: (§1)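 Seeds were sown in sterilized diluvial soil, covered with about 1.5 cm of soil and grown 14 days in a greenhouse at 25° C. to 30° C. An emulsifiable formulation diluted in water to a set rate was sprayed over foliage, and injury was scored 3 weeks later.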

[2] = test system: Echinochloa crus-galli var. crus-galli; experiment: Test Example 4: herbicidal effect by soil treatment (symbol H)
Method in brief: (§2)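 Seeds were sown in sterilized diluvial soil, covered with about 1.5 cm of soil, and the soil surface was sprayed with a water-diluted emulsion of the compound at a predetermined rate. Plants grew in a greenhouse at 25° C. to 30° C.; effects were scored visually 3 weeks after application.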

[3] = test system: transplanted rice plant; experiment: Test Example 1: effect on crop, application before weed generation in submerged conditions (symbol a); settings: application herbicide amount 320 g/ha
Method in brief: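 Alluvial soil pots flooded to 4 cm water, sown with Echinochloa oryzacola, Scirpus juncoides and Monochoria vaginalis, then transplanted with 2.5 leaf stage rice seedlings; pre-emergence application. Greenhouse 25° C. to 30° C.; scored 0–5 by herbicidal ratio 3 weeks after application.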

[4] = test system: rice; experiment: Test Example 4: effect on crop by soil treatment (symbol b); settings: for b: directly sowed rice plant, effect on crop grade: application herbicide amount 320 g/ha
Method in brief: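 Grown at 25° C. to 30° C. in a greenhouse, the crops came from seed sown spot-wise in sterilized diluvial soil under roughly 1.5 cm of covering soil.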

[5] = test system: Apera spica-venti; experiment: Test Example 4: herbicidal effect by soil treatment (symbol L)
Method in brief: as §2

[6] = test system: Cyperus difformis; experiment: Test Example 3: herbicidal effect by foliage application, Wagner pot (symbol E); settings: application herbicide amount 320 g/ha
Method in brief: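 Weeds and rice were sown in alluvial soil under 0.1–0.5 cm of standing water and grown for 14 days in a 25–30 °C greenhouse. An emulsion of the compound, diluted in water to a set dose, was sprayed evenly onto the foliage. Effect was scored against fixed criteria 3 weeks after treatment.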

[7] = test system: soybean; experiment: Test Example 5: effect on crop by foliage application, plastic box (symbol d); settings: 320 g/ha, 3 weeks after application
Method in brief: (§3)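 Seeds were sown in spots in sterilized diluvial soil held in a plastic box 21 cm × 13 cm × 7 cm deep, covered with about 1.5 cm of soil, and grown in a greenhouse at 25° C. to 30° C.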

[8] = test system: corn; experiment: Test Example 5: effect on crop by foliage application, plastic box (symbol c); settings: 320 g/ha, 3 weeks after application
Method in brief: as §3

[9] = test system: Stellaria media; experiment: Test Example 4: herbicidal effect by soil treatment (symbol P)
Method in brief: as §2

[10] = test system: beet; experiment: Test Example 5: effect on crop by foliage application, plastic box (symbol f); settings: 320 g/ha, 3 weeks after application
Method in brief: as §3

[11] = test system: corn; experiment: Test Example 4: effect on crop by soil treatment (symbol c); settings: for c: corn, effect on crop grade: application herbicide amount 320 g/ha
Method in brief: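 Seeds were sown in spots on sterilized diluvial soil in a plastic box and covered with about 1.5 cm of soil. Plants were then grown in a greenhouse at 25° C. to 30° C.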

[12] = test system: Alopecurus myosuroides; experiment: Test Example 5: herbicidal effect by foliage application, plastic box (symbol J); settings: 320 g/ha, 3 weeks after application
Method in brief: as §1

[13] = test system: Abutilon theophrasti; experiment: Test Example 4: herbicidal effect by soil treatment (symbol M)
Method in brief: as §2

[14] = test system: Scirpus juncoides; experiment: Test Example 2: herbicidal activity, application during weed generation in submerged conditions (symbol B); settings: Table 23; application herbicide amount 320 g/ha; grade 0-5 by criteria of Test Example 1
Method in brief: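 Alluvial soil in pots was flooded to a 4 cm water depth and sown with a mix of the three weed species, then grown in a greenhouse at 25° C. to 30° C. At the one- to two-leaf stage, an emulsifiable formulation diluted in water to a set dose was applied to the water surface. Effects were scored visually 3 weeks later.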

[15] = application herbicide amount 320 g/ha

## CON=C(C)CC1CC(O)=C(c2c(C)cc(C)cc2OC)C1=O (stereo not drawn) [6-037, 3-hydroxy-2-(2-methoxy-4,6-dimethylphenyl)-5-{2-(methoxyimino)propyl}cyclopent-2-enone]
[1]
  H: Echinochloa crus-galli var. crus-galli, herbicidal effect grade: 5 (Herbicidal ratio of 90% or more (almost completely withered))
[2]; [15]
  H: Echinochloa crus-galli var. crus-galli, herbicidal effect grade: 5 (Herbicidal ratio of 90% or more (almost completely withered))
[3]
  Effect grade on crop, a: transplanted rice plant: 5 (Herbicidal ratio of 90% or more (almost completely withered))
[4]
  b: directly sowed rice plant, effect on crop grade: 5 (Herbicidal ratio of 90% or more (almost completely withered))
[5]; [15]
  L: Apera spica-venti, herbicidal effect grade: 5 (Herbicidal ratio of 90% or more (almost completely withered))
[6]
  herbicidal effect on E, grade 0-5: 5 (Herbicidal ratio of 90% or more (almost completely withered))
[7]
  d: soybean, effect on crop grade: 4 (Herbicidal ratio of 70% or higher and lower than 90%)
[8]
  c: corn, effect on crop grade: 5 (Herbicidal ratio of 90% or more (almost completely withered))
[9]; [15]
  P: Stellaria media, herbicidal effect grade: 0 (Herbicidal ratio of 5% or lower (almost no effect))
[10]
  f: beet, effect on crop grade: 3 (Herbicidal ratio of 40% or higher and lower than 70%)
[11]
  c: corn, effect on crop grade: 5 (Herbicidal ratio of 90% or more (almost completely withered))
[12]
  J: Alopecurus myosuroides, herbicidal effect grade: 5 (Herbicidal ratio of 90% or more (almost completely withered))
[13]; [15]
  M: Abutilon theophrasti, herbicidal effect grade: 5 (Herbicidal ratio of 90% or more (almost completely withered))
[14]
  Herbicidal effect grade, B: Scirpus juncoides: 4 (Herbicidal ratio of 70% or higher and lower than 90%)

## CC(=O)CC1CC(OC(=O)C(C)(C)C)=C(c2c(C)cc(C)cc2C)C1=O (stereo not drawn) [2-018]
[1]
  H: Echinochloa crus-galli var. crus-galli, herbicidal effect grade: 1 (Herbicidal ratio of 5% or higher and lower than 20%)
[2]; [15]
  H: Echinochloa crus-galli var. crus-galli, herbicidal effect grade: 5 (Herbicidal ratio of 90% or more (almost completely withered))
[3]
  Effect grade on crop, a: transplanted rice plant: 4 (Herbicidal ratio of 70% or higher and lower than 90%)
[4]
  b: directly sowed rice plant, effect on crop grade: 5 (Herbicidal ratio of 90% or more (almost completely withered))
[5]; [15]
  L: Apera spica-venti, herbicidal effect grade: 2 (Herbicidal ratio of 20% or higher and lower than 40%)
[6]
  herbicidal effect on E, grade 0-5: 5 (Herbicidal ratio of 90% or more (almost completely withered))
[7]
  d: soybean, effect on crop grade: 0 (Herbicidal ratio of 5% or lower (almost no effect))
[8]
  c: corn, effect on crop grade: 0 (Herbicidal ratio of 5% or lower (almost no effect))
[9]; [15]
  P: Stellaria media, herbicidal effect grade: 0 (Herbicidal ratio of 5% or lower (almost no effect))
[10]
  f: beet, effect on crop grade: 0 (Herbicidal ratio of 5% or lower (almost no effect))
[11]
  c: corn, effect on crop grade: 2 (Herbicidal ratio of 20% or higher and lower than 40%)
[12]
  J: Alopecurus myosuroides, herbicidal effect grade: 1 (Herbicidal ratio of 5% or higher and lower than 20%)
[13]; [15]
  M: Abutilon theophrasti, herbicidal effect grade: 4 (Herbicidal ratio of 70% or higher and lower than 90%)
[14]
  Herbicidal effect grade, B: Scirpus juncoides: 0 (Herbicidal ratio of 5% or lower (almost no effect))

## C=CC(=O)CC1CC(O)=C(c2c(C)cc(C)cc2C)C1=O (stereo not drawn) [2-031]
[1]
  H: Echinochloa crus-galli var. crus-galli, herbicidal effect grade: 5 (Herbicidal ratio of 90% or more (almost completely withered))
[2]; [15]
  H: Echinochloa crus-galli var. crus-galli, herbicidal effect grade: 5 (Herbicidal ratio of 90% or more (almost completely withered))
[3]
  Effect grade on crop, a: transplanted rice plant: 5 (Herbicidal ratio of 90% or more (almost completely withered))
[4]
  b: directly sowed rice plant, effect on crop grade: 5 (Herbicidal ratio of 90% or more (almost completely withered))
[5]; [15]
  L: Apera spica-venti, herbicidal effect grade: 2 (Herbicidal ratio of 20% or higher and lower than 40%)
[6]
  herbicidal effect on E, grade 0-5: 5 (Herbicidal ratio of 90% or more (almost completely withered))
[7]
  d: soybean, effect on crop grade: 0 (Herbicidal ratio of 5% or lower (almost no effect))
[8]
  c: corn, effect on crop grade: 5 (Herbicidal ratio of 90% or more (almost completely withered))
[9]; [15]
  P: Stellaria media, herbicidal effect grade: 0 (Herbicidal ratio of 5% or lower (almost no effect))
[10]
  f: beet, effect on crop grade: 0 (Herbicidal ratio of 5% or lower (almost no effect))
[11]
  c: corn, effect on crop grade: 5 (Herbicidal ratio of 90% or more (almost completely withered))
[12]
  J: Alopecurus myosuroides, herbicidal effect grade: 5 (Herbicidal ratio of 90% or more (almost completely withered))
[13]; [15]
  M: Abutilon theophrasti, herbicidal effect grade: 1 (Herbicidal ratio of 5% or higher and lower than 20%)
[14]
  Herbicidal effect grade, B: Scirpus juncoides: 0 (Herbicidal ratio of 5% or lower (almost no effect))

## CC#Cc1cc(C)c(C2=C(O)CC(CC(C)=NOC)C2=O)c(CC)c1 (mixture of isomers) [6-006]
[1]
  H: Echinochloa crus-galli var. crus-galli, herbicidal effect grade: 4 (Herbicidal ratio of 70% or higher and lower than 90%)
[2]; [15]
  H: Echinochloa crus-galli var. crus-galli, herbicidal effect grade: 5 (Herbicidal ratio of 90% or more (almost completely withered))
[3]
  Effect grade on crop, a: transplanted rice plant: 5 (Herbicidal ratio of 90% or more (almost completely withered))
[4]
  b: directly sowed rice plant, effect on crop grade: 5 (Herbicidal ratio of 90% or more (almost completely withered))
[5]; [15]
  L: Apera spica-venti, herbicidal effect grade: 5 (Herbicidal ratio of 90% or more (almost completely withered))
[6]
  herbicidal effect on E, grade 0-5: 5 (Herbicidal ratio of 90% or more (almost completely withered))
[7]
  d: soybean, effect on crop grade: 0 (Herbicidal ratio of 5% or lower (almost no effect))
[8]
  c: corn, effect on crop grade: 1 (Herbicidal ratio of 5% or higher and lower than 20%)
[9]; [15]
  P: Stellaria media, herbicidal effect grade: 0 (Herbicidal ratio of 5% or lower (almost no effect))
[11]
  c: corn, effect on crop grade: 5 (Herbicidal ratio of 90% or more (almost completely withered))
[12]
  J: Alopecurus myosuroides, herbicidal effect grade: 5 (Herbicidal ratio of 90% or more (almost completely withered))
[13]; [15]
  M: Abutilon theophrasti, herbicidal effect grade: 4 (Herbicidal ratio of 70% or higher and lower than 90%)
[14]
  Herbicidal effect grade, B: Scirpus juncoides: 5 (Herbicidal ratio of 90% or more (almost completely withered))

## CON=C(C)CC1CC(O)=C(c2c(C)cc(-n3cc(Cl)cn3)cc2C)C1=O (mixture of isomers) [6-004]
[1]
  H: Echinochloa crus-galli var. crus-galli, herbicidal effect grade: 5 (Herbicidal ratio of 90% or more (almost completely withered))
[2]; [15]
  H: Echinochloa crus-galli var. crus-galli, herbicidal effect grade: 5 (Herbicidal ratio of 90% or more (almost completely withered))
[3]
  Effect grade on crop, a: transplanted rice plant: 5 (Herbicidal ratio of 90% or more (almost completely withered))
[4]
  b: directly sowed rice plant, effect on crop grade: 5 (Herbicidal ratio of 90% or more (almost completely withered))
[5]; [15]
  L: Apera spica-venti, herbicidal effect grade: 5 (Herbicidal ratio of 90% or more (almost completely withered))
[6]
  herbicidal effect on E, grade 0-5: 5 (Herbicidal ratio of 90% or more (almost completely withered))
[7]
  d: soybean, effect on crop grade: 1 (Herbicidal ratio of 5% or higher and lower than 20%)
[8]
  c: corn, effect on crop grade: 4 (Herbicidal ratio of 70% or higher and lower than 90%)
[9]; [15]
  P: Stellaria media, herbicidal effect grade: 0 (Herbicidal ratio of 5% or lower (almost no effect))
[11]
  c: corn, effect on crop grade: 2 (Herbicidal ratio of 20% or higher and lower than 40%)
[12]
  J: Alopecurus myosuroides, herbicidal effect grade: 5 (Herbicidal ratio of 90% or more (almost completely withered))
[13]; [15]
  M: Abutilon theophrasti, herbicidal effect grade: 0 (Herbicidal ratio of 5% or lower (almost no effect))
[14]
  Herbicidal effect grade, B: Scirpus juncoides: 4 (Herbicidal ratio of 70% or higher and lower than 90%)

## C=CCOC(=O)OC1=C(c2c(C)cc(C)cc2C)C(=O)C(CC(C)=NOC)C1 (stereo not drawn) [1-146]
[1]
  H: Echinochloa crus-galli var. crus-galli, herbicidal effect (criteria 0-5): 5 (Herbicidal ratio of 90% or more (almost completely withered))
[2]; 320 g/ha
  H: Echinochloa crus-galli var. crus-galli, herbicidal effect grade: 5 (Herbicidal ratio of 90% or more (almost completely withered))
[3]
  Effect grade on crop, a: transplanted rice plant: 5 (Herbicidal ratio of 90% or more (almost completely withered))
[4]; 320 g/ha
  b: directly sowed rice plant, effect grade on crop: 5 (Herbicidal ratio of 90% or more (almost completely withered))
[5]; 320 g/ha
  L: Apera spica-venti, herbicidal effect grade: 5 (Herbicidal ratio of 90% or more (almost completely withered))
[7]
  d: soybean, effect on crop (criteria 0-5): 4 (Herbicidal ratio of 70% or higher and lower than 90%)
[8]
  c: corn, effect on crop (criteria 0-5): 5 (Herbicidal ratio of 90% or more (almost completely withered))
[9]; 320 g/ha
  P: Stellaria media, herbicidal effect grade: 1 (Herbicidal ratio of 5% or higher and lower than 20%)
[10]
  f: beet, effect on crop (criteria 0-5): 4 (Herbicidal ratio of 70% or higher and lower than 90%)
[11]; 320 g/ha
  c: corn, effect grade on crop: 1 (Herbicidal ratio of 5% or higher and lower than 20%)
[12]
  J: Alopecurus myosuroides, herbicidal effect (criteria 0-5): 5 (Herbicidal ratio of 90% or more (almost completely withered))
[13]; 320 g/ha
  M: Abutilon theophrasti, herbicidal effect grade: 5 (Herbicidal ratio of 90% or more (almost completely withered))
[14]
  Herbicidal effect grade, B: Scirpus juncoides: 5 (Herbicidal ratio of 90% or more (almost completely withered))
